Results from patent US8895599B2, “Lipoprotein lipase-activating compositions comprising benzene derivates” (Otsuka Pharmaceutical Factory, Inc., priority 2008, dated 2014).

Key:
[1] = Anti-obesity test using AKR mice (high-fat feed); type: in vivo; settings: 1 mg per gram of feed in high-fat feed, 7 weeks, AKR/J mice, relative to high-fat feed control group
From the text: Anti-Obesity Test Using AKR Mice
Furthermore, this test enables the evaluation of therapeutic effects on diabetes. That is, it is reported that insulinemia can be observed in AKR/J mice when they are fed with a high-fat diet (see Am. J. Physiol. 266 (5 Pt 2), May 1994: R1423-8). It is thus known that insulinemia is strongly associated with diabetes (see, for example, J. Cardiovasc. Nurs. 16 (2), January 2002: 17-23). Therefore, this test can verify the therapeutic effects of the compounds of the present invention, used as test compounds, on diabetes.
For rat feed, powdered CRF-1 (Charles River Formula 1, manufactured by Oriental Yeast, Co., Ltd.) was used as normal feed. As high-fat feed, that prepared by blending CRF-1 with 18% safflower oil (Oriental Yeast, Co., Ltd.) was used.
Test substances were blended with the high-fat feed in an amount of 1 mg per gram of CRF-1.
AKR/J mice (from CLEA Japan, Inc.) were purchased at the age of 4 weeks. They were roughly divided into 2 groups according to body weight when the mice reached 5 weeks old. During this period, all mice were given the normal feed.
Subsequently, the mice of one group (8 mice) continued to be fed with the normal feed (normal feed group). The mice of the other group (8×(the number of the test substances+1) mice) were given the high-fat feed (high-fat feed group).
The body weight of the mice of each group was measured daily. […] These mice were further reared for 7 weeks (“test substances+high-fat feed groups”; n=8 per type of test substance). Specifically, the administration of the test substances was continued for 7 weeks. A group of mice to which high-fat feed containing no test substance was continued to be given was used as a control (high-fat feed control group; n=8).
Four hours after the feeding on the last day of the 7-week test (the last day of the test), the body weight of the mice of the “test substances+high fat feed groups” was measured. Blood was collected from the abdominal aorta of the mice using a heparinized syringe, and the leptin and insulin levels in the plasma were measured using an Elisa kit (produced by Morinaga). The mice of the other groups (normal feed group and high-fat feed control group) were reared till the last day of the test as above, and 4 hours after the last feeding on the last day of the test the measurements were performed according to the same procedures.
The average values of the test results (body weight, leptin level, and insulin level) of the test substances+high-fat feed groups to which the compounds prepared in Examples (Examples 10 and 58) were used as test substances (hereinbelow referred to as the “Example Compound 10-mixed high-fat feed group” and “Example Compound 58-mixed high-fat feed group”) were compared with the respective average values (standard values) of the results obtained from the mice of the high-fat control group to obtain the variations (differences). The differences were expressed as percentages in relation to the standard values. The values thus calculated were referred to as “weight change (%)”, “leptin level change (%)”, and “insulin level change (%)”. In the table below, the symbols “−” (minus) indicate that the differences are negative relative to the standard values.

[2] = system: LPL; assay: Test for LPL activity-increasing effect in normal rats (skeletal muscle LPL activity); type: in vivo; settings: every day for 1 week, SD rats, soleus muscle, 4 h after administration
Description: Test for LPL Activity-Increasing Effect in Normal Rats
6-week-old SD rats (purchased from Charles River Japan) were used as subjects. The rats were divided into groups according to body weight at the age of 5 weeks. The rats in each test group were orally administered with a 5% gum arabic suspension in an amount of 5 ml/kg of body weight, the suspension containing the test compound of the invention in such an amount that the dose of the compound of the invention became 30 mg/kg of body weight in one group and 100 mg/kg of body weight in another group. The rats in a control group were orally administered with a 5% gum arabic suspension (not containing the test compound of the invention) in an amount of 5 ml/kg of body weight. Each sample suspension was orally administered every day at a specific time of day for 1 week starting when the rats reached the age of 6 weeks.
Four hours after the administration of the sample suspension, skeletal muscle tissues of the rats were collected, then freeze-clamped and stored under liquid nitrogen. LPL activity in the skeletal muscle tissues was measured by the following method.
The soleus muscle was homogenized in a chilled solution of 0.05 mol/L NH4OH—NH4Cl buffer (pH 8.5) containing 0.5 U/mL heparin at 1 mL/100 mg of tissue wet weight. After standing on ice for 60 min with vigorous mixing at intervals of 15 min, the homogenate was centrifuged at 3000 rpm and 4° C. for 10 min and the supernatant was separated.
The substrate solution was prepared by mixing 2 μCi of glycerol tri[1-^14C]oleate, 0.133 g of unlabeled triolein, 0.9 mL of 1% Triton X-100, and 0.9 mL of 4% bovine serum albumin. in 0.2 mol/L Tris-HCl buffer (pH 8.6) and 10.2 mL of 0.2 mol/L Tris-HCl buffer (pH 8.6). The mixture was emulsified by sonication on ice for 3 min.
In a glass test tube, 0.1 mL of the tissue extract, 0.05 mL of heat-inactivated rat serum and 0.15 mL of 4% bovine serum albumin in 0.2 mol/L Tris-HCl buffer (pH 7.4) were mixed. Enzyme reaction was started by adding 0.2 mL of the substrate solution and was carried out for 30 min. at 37° C.
The reaction was stopped by addition of 2 mL of 1.5 mol/L H2SO4/2-propanol (1:40, v/v), and 1 mL of distilled water and 3 mL of hexane were added into the test tube. After vigorously shaking for 10 min. at room temperature, the test tube was centrifuged for 10 min. at 3000 rpm.
The upper layer (3.5 mL) was collected in a new test tube and mixed with 1 mL of 0.1 mol/L KOH.
The test tube was vigorously shaken for 10 min. at room temperature and then centrifuged for 10 min. at 3000 rpm.
After removing the upper layer, 1 mL of the lower layer (water phase) was transferred into a vial for counting, neutralized with 50 μL of 1.3 mol/L HCl and mixed with 4 mL of scintillator. The radioactivity was measured using a liquid scintillation counter.
The LPL activity increase (%) was calculated from the measured values of LPL activity in the control group and test groups according to the following formula: LPL activity increase (%)=(Test group average value)/(Control group average value)×100−100

- melting point: 141 to 143 °C
SMILES: COc1cc(-c2cn3ccccc3n2)ccc1OCc1ccc(Cl)cc1 [Example 10]
- Weight Change (%) [1]: −15%
- Insulin level change (%) ([1]; plasma): −54%
- Leptin level change (%) ([1]; plasma): −68%
- Increase of skeletal muscle LPL activity compared to control (%) ([2]; 30 mg/kg oral): 22%
- Increase of skeletal muscle LPL activity compared to control (%) ([2]; 100 mg/kg oral): 55%
